“And” between values parts separate entries of the source, which are not always exact repeats. Identical values can stand only once.
Experiment: molar heat capacity at constant pressure
Settings: 101.33 kPa, Crystal, Small sample (50 mg) DSC

[Pb].[Pb].[Pb].[U] [uranium trilead]
Settings	molar heat capacity at constant pressure
316.34 K	102.56 J/K/mol and 102.48 J/K/mol
326.01 K	102.76 J/K/mol and 102.64 J/K/mol
336.81 K	102.96 J/K/mol and 102.76 J/K/mol
346.52 K	102.92 J/K/mol and 103.16 J/K/mol
356.26 K	103 J/K/mol and 103.32 J/K/mol
366.02 K	103.12 J/K/mol and 103.44 J/K/mol
375.81 K	103.24 J/K/mol and 103.6 J/K/mol
385.63 K	103.36 J/K/mol and 103.72 J/K/mol
395.49 K	103.44 J/K/mol and 103.88 J/K/mol
405.37 K	103.52 J/K/mol and 104 J/K/mol
415.29 K	104.12 J/K/mol and 103.64 J/K/mol
425.25 K	104.24 J/K/mol and 103.72 J/K/mol
435.23 K	104.32 J/K/mol and 103.8 J/K/mol
445.22 K	104.44 J/K/mol and 103.88 J/K/mol
455.21 K	104.56 J/K/mol and 103.96 J/K/mol
465.2 K	104.64 J/K/mol and 104 J/K/mol
475.19 K	104.72 J/K/mol and 104.08 J/K/mol
485.18 K	104.8 J/K/mol and 104.16 J/K/mol
495.17 K	104.92 J/K/mol and 104.2 J/K/mol
505.15 K	105 J/K/mol and 104.28 J/K/mol
515.13 K	105.08 J/K/mol and 104.32 J/K/mol
525.11 K	105.12 J/K/mol and 104.4 J/K/mol
535.04 K	105.2 J/K/mol and 104.44 J/K/mol
544.83 K	105.28 J/K/mol and 104.48 J/K/mol
554.76 K	105.36 J/K/mol and 104.52 J/K/mol
564.58 K	105.4 J/K/mol and 104.56 J/K/mol
574.42 K	105.48 J/K/mol and 104.64 J/K/mol
584.3 K	105.52 J/K/mol and 104.68 J/K/mol
594.25 K	105.6 J/K/mol and 104.72 J/K/mol
604.13 K	105.64 J/K/mol and 104.76 J/K/mol
